Data taken from the NIST ThermoML archive (doi:10.1016/j.fluid.2005.01.012).
Numbers after ± are expanded uncertainties.

Experiment: refractive index (Na D-line) (dimensionless)
Settings: 293.1 K; 101.33 kPa; Liquid; Standard Abbe refractometry

SMILES | refractive index
CCCCCCCCCCCC [dodecane] | 1.422 ± 0.0008
CCCc1ccccc1 [propylbenzene] | 1.4915 ± 0.0008
CCCCCCCCCCCCCCCCC [heptadecane] | 1.4362 ± 0.0008
CCCCCCCCCCCCCC [tetradecane] | 1.4291 ± 0.0008
CN1CCCC1=O [N-methylpyrrolidone] | 1.4696 ± 0.0008
